Here are results for 3 molecules from ChEMBL document CHEMBL6153133, “Discovery of Diphenyl Ether Derivatives as Novel BKCa Channel Activators: Structure-Activity Relationship, Cryo-EM Complex Structures, and In Vivo Animal Studies” (J Med Chem, 2025).

SMILES strings stand for the structures.

One assay concerns Urinary bladder. In words: Induction of relaxation in Sprague-Dawley rat urinary bladder strips assessed as reduction in contraction. In kind it is functional, tissue-based.
Assay [1] has as its target T1, Calcium-activated potassium channel subunit alpha-1 (Homo sapiens, UniProt Q12791). In words: Activation of BKca channel (unknown origin) by cell based method.
Assay [2] relates to Calcium-activated potassium channel subunit alpha-1 (Homo sapiens), Q12791 [UNDEFINED MUTATION]. In words: Activation of hyperactive human BKca channel G803D/N806K mutant transfected in human AD-293 cells assessed as maximum relative fluorescence value at 5 uM preincubated for 15 mins followed by Tl+ stimulus buffer addition and measured after 80 sec by Flexstation3 multimode microplate reader analysis relative to control. In kind it is cell-based. The conditions noted are these: time 980.0 sec.
Chain of Calcium-activated potassium channel subunit alpha-1 (Homo sapiens), Q12791 [UNDEFINED MUTATION] (Q12791 whole entry, looked up, stated change not applied): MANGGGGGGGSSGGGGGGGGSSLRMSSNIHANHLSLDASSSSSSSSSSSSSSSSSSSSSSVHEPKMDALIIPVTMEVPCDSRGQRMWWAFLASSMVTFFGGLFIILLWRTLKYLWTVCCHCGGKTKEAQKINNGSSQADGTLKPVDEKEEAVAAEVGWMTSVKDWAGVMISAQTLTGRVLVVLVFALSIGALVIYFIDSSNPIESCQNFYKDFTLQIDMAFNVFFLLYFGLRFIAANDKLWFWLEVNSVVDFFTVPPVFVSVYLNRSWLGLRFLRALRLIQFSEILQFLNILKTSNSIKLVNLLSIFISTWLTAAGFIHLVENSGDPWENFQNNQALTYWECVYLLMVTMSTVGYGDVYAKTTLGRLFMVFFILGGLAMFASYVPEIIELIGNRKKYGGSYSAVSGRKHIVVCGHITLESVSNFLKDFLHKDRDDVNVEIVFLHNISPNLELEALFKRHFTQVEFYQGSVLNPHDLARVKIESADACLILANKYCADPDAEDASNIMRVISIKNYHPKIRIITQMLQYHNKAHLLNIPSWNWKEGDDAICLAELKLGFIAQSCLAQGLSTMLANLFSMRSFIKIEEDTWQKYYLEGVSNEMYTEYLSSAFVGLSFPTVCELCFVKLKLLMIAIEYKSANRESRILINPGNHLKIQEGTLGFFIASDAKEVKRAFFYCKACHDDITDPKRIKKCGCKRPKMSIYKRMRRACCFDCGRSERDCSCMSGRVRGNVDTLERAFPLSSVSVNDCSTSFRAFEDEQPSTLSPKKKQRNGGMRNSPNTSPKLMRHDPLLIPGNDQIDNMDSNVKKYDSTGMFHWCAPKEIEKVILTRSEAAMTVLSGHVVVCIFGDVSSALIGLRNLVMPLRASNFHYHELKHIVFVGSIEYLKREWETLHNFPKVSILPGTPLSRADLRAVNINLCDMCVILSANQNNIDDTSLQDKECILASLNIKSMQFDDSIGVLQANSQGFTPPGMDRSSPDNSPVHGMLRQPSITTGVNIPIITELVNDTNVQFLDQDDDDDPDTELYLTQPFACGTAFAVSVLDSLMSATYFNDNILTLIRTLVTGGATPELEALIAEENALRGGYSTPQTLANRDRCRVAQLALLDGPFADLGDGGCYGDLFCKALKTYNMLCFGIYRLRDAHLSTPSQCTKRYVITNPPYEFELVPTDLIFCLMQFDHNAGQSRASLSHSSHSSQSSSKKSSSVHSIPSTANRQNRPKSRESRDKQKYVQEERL

For assay [3], the target named is T1, Calcium-activated potassium channel subunit alpha-1. The assay is described as follows: Activation of BKca channel (unknown origin) by cell-based fluorescence assay.
In assay [4] the target is Calcium-activated potassium channel subunit alpha-1 (Homo sapiens, UniProt Q12791, G803D/N806K). In words: Activation of hyperactive human BKca channel G803D/N806K mutant transfected in human AD-293 cells incubated for 20 to 30 mins by Flexstation3 multimode microplate reader analysis. In kind it is cell-based.
Chain of Calcium-activated potassium channel subunit alpha-1 (Homo sapiens, UniProt Q12791, G803D/N806K) (Q12791 whole entry, looked up, stated change not applied): as above
In assay [5] the target is T1, Calcium-activated potassium channel subunit alpha-1. In words: Activation of human BK ca channel expressed in CHO cells by whole cell patch clamp method. The assay is classed as cell-based. (In general: The patch-clamp technique gives a direct electrical read-out from membranes.)

T1 sequence (Q12791 whole entry): as the sequence (Q12791 whole entry, looked up, stated change not applied) above

Turning to `O=C(O)c1ccc(Cl)c2c1[nH]c1c3ccc(C(F)(F)F)cc3oc12`, the EC50 (commonly the concentration needed to bring the measured effect to its halfway point) is 2.5 µM with Urinary bladder, 5.4 µM in assay [1] and 5.4 µM in assay [3]. In addition, the Activity in assay [2] was determined as 34.9%.
Turning to `Oc1ccc(-c2onc(C(F)(F)F)c2-c2ccc(Cl)cc2)c(O)c1`, the EC50 in assay [4] amounted to 3.9 µM.
As for `CCc1oc2ccccc2c1C(=O)c1cc(Br)c(O)c(Br)c1` [BENZBROMARONE], the EC50 in assay [5] stood at 111 µM.
